Columns and labels:
[1] = tested on: TNF-α expression in HepG2 xenografts; assay: Immunohistochemistry staining of TNF-α in HepG2 xenografts; assay type: in vivo, Balb/c nude mice; conditions: 96 5.0 mg/kg, DOX 1.0 mg/kg, versus model group
Method: (§1) The HepG2 cells xenografts were established using the Balb/c nude mice (female, 7-week-old, 17–19 g, n = 30) (Shanghai Laboratory Animal Center, Shanghai Shi, China) were used to investigate the anti-hepatoma effect of 96. Animal experiments were reviewed and approved by the Binzhou Medical University Experimental Animal Committee. Briefly, HepG2 cells (1 × 10^7/0.2 ml PBS/mouse) were inoculated subcutaneously. Three days after the inoculation, the mice were randomly divided into five groups: the saline treated group (Control), 96 (0.2 mg/kg) group, 96 (1.0 mg/kg) treated group, 96 (5.0 mg/kg) treated group, and DOX (1.0 mg/kg) treated group. 96 were dissolved in saline containing 1% of DMSO and administered intraperitoneally every 2 d for 20 days. DOX was also administered intraperitoneally every 2 d for 20 d. The body weight and HepG2 xenografts volumes were recorded from the day of treatment, and xenografts volumes were calculated using the equation: tumour volume = length×(width)[2]×π/6. At the end of the experiment, mice were sacrificed and the xenografts were obtained for western blotting, HE staining and immunohistochemistry staining.
The HepG2 xenografts tissues were embedded using the paraffin, and sectioned for HE staining and immunohistochemistry staining. HE staining was performed routinely. The immunohistochemistry staining carried out as following. […]

[2] = tested on: human colon cancer cells (HCT116); assay: Cytotoxicity, MTT assay, HCT116; assay type: cell-based
Description: (§2) Compounds 83–102 were screened against human neoplastic cell lines, such as human breast cancer cells (MCF-7), human colon cancer cells (HCT116), human lung carcinoma cells (A549), human gastric adenocarcinoma cells (SGC7901), human liver hepatocellular carcinoma cell line (HepG2), human cervical carcinoma cells (HeLa), human acute mononuclear granulocyte leukaemia (THP-1), and human normal hepatic cell line (LO2) using modified MTT assay. All the cells were obtained from the American Type Culture Collection (ATCC, Manassas, VA). The cells were cultured in DMEM or 1640. Positive controls (Doxorubicin (DOX) and Curcumin) and BAPs were initially dissolved in dimethyl sulphoxide (DMSO). Experimental concentration of DMSO was always 0.1% (v/v). The concentrations of BAPs and positive controls were 50, 20, 10, 5, 2.5, 1, 0.5, 0.1, 0.05, and 0.01 μg/mL.
(§3) The cells (1 × 10^4 cells/well) were seeded in a 96-well plate and incubated for 24 h. Cells treated with serial concentrations of drugs were incubated for another 24 h. After the media removed, 20 μL of MTT (5 mg/mL) solution was added and incubated for 4 h at 37 °C. The MTT solution was removed and then 150 μL of DMSO was added. The optical density was measured with a multi-well plate reader (TECAN, Mӓnnedorf, Switzerland) at 570 nm. The results are expressed as a decrease in the cell viability (%) in comparison to untreated controls. The concentration of each compound was examined in triplicate, and the IC50 values are expressed in Table 1.

[3] = tested on: Bcl-2 expression in HepG2 xenografts; assay: Western blot, Bcl-2 in HepG2 xenografts; assay type: in vivo, Balb/c nude mice; conditions: 0.2, 1.0 and 5.0 mg/kg
Method: as §1
Western blotting was performed to detect the expression of Bcl-2, Bax and C-caspase-3 in HepG2 xenografts. Fresh HepG2 xenografts tissues were lysed and the obtained proteins were processed as the protein obtained from the HepG2 cells.

[4] = tested on: human lung carcinoma cells (A549); assay: Cytotoxicity, MTT assay, A549; assay type: cell-based; conditions: for IC50: MTT, 24 h
Description: as §2, §3

[5] = tested on: C-caspase-3 expression in HepG2 cells; assay: Western blot, C-caspase-3 expression in HepG2 cells; assay type: cell-based, human; conditions: HepG2, 1.0, 2.0, and 4.0 μM
Method: The HepG2 cells were treated with BAP 96 at different concentrations (1.0, 2.0, and 4.0 µM) for 3 h, and washed twice by PBS. The cells were lysed and the extracted proteins of cell lysates were separated by 10% SDS-PAGE gel electrophoresis, then transferred onto polyvinylidene fluorides membranes. The membranes were probed with antibodies and visualized using an enhanced chemiluminescence (ECL) detection kit.

[6] = tested on: HepG2 xenografts; assay: HepG2 xenografts growth in nude mice; assay type: in vivo, Balb/c nude mice
Method: as §1

[7] = tested on: NF-κB p65 nuclear translocation in LPS-stimulated RAW264.7 cells; assay: NF-κB p65 nuclear translocation, immunofluorescence, RAW264.7; assay type: cell-based; conditions: RAW264.7, LPS 1.0 μg/mL, 4.0 μM
Method: RAW264.7 cells were pretreated in 96-well plates with LPS (1 μg/mL) for 15 min and then treated with 96 for 2 h. Similarly, HepG2 cells were pretreated with TNF-α (10 ng/mL) for 15 min and then treated with 96 for 4 h. The cells were fixed with 2% paraformaldehyde for 15 min at 37 °C and permeabilized using 0.1% Triton X-100 for 10 min at RT. After blockage with 3% BSA for 30 min, the cells were incubated with anti-NF-κB p65 antibody (NOVUS BIOLOGICALS, Colorado, USA) at 4 °C overnight. After washing, the anti-mouse Alexa488-conjugated secondary antibody (Jackson Immuno Research, West Grove, PA) was incubated for 30 min at RT. After washed with PBS, the cells were incubated in 4-6-diamidino-2-phenyindole (DAPI; Sigma, St. Louis, MO) for 15 min in the dark at RT. The cell images were simultaneously viewed using a microscopy system in High Throughput Screen (Operetta, PerkinElmer, Waltham, MA).

[8] = quotient of IC50 towards LO2 cells

With `CN1CC(=Cc2cccc(N=Cc3cc(Br)ccc3O)c2)C(=O)C(=Cc2ccccc2F)C1` [Compound 96] the “TNF-α expression, immunohistochemistry” value [1] was “significantly reduced”, the IC50 ([2]; Homo sapiens, HCT-116, MTT, 24 h) was 2500 ± 100 nM and the “HCT116 SI (selectivity index)” value [2, 8] was 8.0. The “Expression of Bcl-2 in HepG2 xenografts” value [3] was “dose-dependently decreased”, the IC50 ([4]; Homo sapiens, A549, 24 h) was under 2000 nM and the IC50 [4] was 1600 ± 400 nM. For the same molecule, the “A549 SI (selectivity index)” value [4, 8] was 12.4, the “Expression of C-caspase-3” value [5] was “dose-dependently increased” and the “Growth of HepG2 xenografts” value ([6]; 0.2 mg/kg intraperitoneally every 2 d for 20 days) was “slightly decreased the growth of HepG2 xenografts”. For the same molecule, the “Growth of HepG2 xenografts” value ([6]; 1.0 mg/kg intraperitoneally every 2 d for 20 days) was “slightly decreased the growth of HepG2 xenografts”, the “Growth of HepG2 xenografts” value ([6]; 5.0 mg/kg intraperitoneally every 2 d for 20 days) was “significantly inhibited the growth of HepG2 xenografts” and the p65 nuclear translocation [7] was “prevented the p65 nuclear translocation”.

Reference: paper PMC6691761, “Potential multifunctional agents with anti-hepatoma and anti-inflammation properties by inhibiting NF-кB activation” (Journal of Enzyme Inhibition and Medicinal Chemistry, 2019)
